ChEMBL document CHEMBL2086374, “C-Glucosylated malonitrile as a key intermediate towards carbohydrate-based glycogen phosphorylase inhibitors” (Bioorg Med Chem, 2012)

Legend:
[1] = molecular target: T1, Glycogen phosphorylase, muscle form (Oryctolagus cuniculus) (UniProt P00489); assay: Inhibition of rabbit skeletal muscle glycogen phosphorylase-B using glucose-1-phosphate substrate assessed as […] in phosphate release at 1000 uM
T1 sequence (whole entry): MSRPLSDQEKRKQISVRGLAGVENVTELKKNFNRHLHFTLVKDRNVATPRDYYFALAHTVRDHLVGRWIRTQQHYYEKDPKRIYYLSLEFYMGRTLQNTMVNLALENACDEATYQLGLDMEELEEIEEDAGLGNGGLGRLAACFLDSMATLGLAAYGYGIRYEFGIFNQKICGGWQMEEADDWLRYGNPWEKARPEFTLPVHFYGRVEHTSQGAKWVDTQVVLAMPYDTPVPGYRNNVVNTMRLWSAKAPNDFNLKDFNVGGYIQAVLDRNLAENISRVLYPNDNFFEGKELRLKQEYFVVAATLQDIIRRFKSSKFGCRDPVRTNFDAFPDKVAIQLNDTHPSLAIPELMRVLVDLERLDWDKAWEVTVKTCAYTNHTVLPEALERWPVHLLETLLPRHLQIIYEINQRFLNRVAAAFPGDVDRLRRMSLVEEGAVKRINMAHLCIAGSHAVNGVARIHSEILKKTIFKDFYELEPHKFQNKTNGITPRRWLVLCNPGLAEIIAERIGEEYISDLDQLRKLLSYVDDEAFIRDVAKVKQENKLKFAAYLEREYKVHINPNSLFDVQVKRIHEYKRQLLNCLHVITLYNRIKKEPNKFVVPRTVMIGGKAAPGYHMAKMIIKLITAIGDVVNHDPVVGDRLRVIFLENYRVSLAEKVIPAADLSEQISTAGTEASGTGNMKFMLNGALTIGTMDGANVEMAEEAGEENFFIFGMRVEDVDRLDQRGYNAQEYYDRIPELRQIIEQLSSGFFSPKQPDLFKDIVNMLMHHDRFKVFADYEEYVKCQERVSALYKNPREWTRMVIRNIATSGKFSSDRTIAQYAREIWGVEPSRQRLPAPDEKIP

[2] = molecular target: T1, Glycogen phosphorylase, muscle form (Oryctolagus cuniculus); assay: Inhibition of rabbit skeletal muscle glycogen phosphorylase-B using glucose-1-phosphate substrate assessed as […] in phosphate release at 250 uM
[3] = Solubility of compound in water in presence of 20% DMSO; type: physicochemical; conditions: buffer
[4] = molecular target: T1, Glycogen phosphorylase, muscle form (Oryctolagus cuniculus); assay: Inhibition of rabbit skeletal muscle glycogen phosphorylase-B using glucose-1-phosphate substrate assessed as […] in phosphate release at 300 uM

| SMILES | inhibition [1] | other results |
| --- | --- | --- |
| O=C(NCC(CNC(=O)c1ccccc1)[C@@H]1O[C@H](CO)[C@@H](O)[C@H](O)[C@H]1O)c1ccccc1 | 21% | – |
| OC[C@H]1O[C@@H](C(c2nc(-c3ccc4ccccc4c3)no2)c2nc(-c3ccc4ccccc4c3)no2)[C@H](O)[C@@H](O)[C@@H]1O | – | inhibition [2]: 38%; solubility [3]: Insoluble |
| O=C1NCC([C@@H]2O[C@H](CO)[C@@H](O)[C@H](O)[C@H]2O)CN1 | 8.5% | – |
| O=C(NCC(CNC(=O)c1ccc2ccccc2c1)[C@@H]1O[C@H](CO)[C@@H](O)[C@H](O)[C@H]1O)c1ccc2ccccc2c1 | – | inhibition [4]: 44% |
| Cc1ccc(-c2noc(C(c3nc(-c4ccc(C)cc4)no3)[C@@H]3O[C@H](CO)[C@@H](O)[C@H](O)[C@H]3O)n2)cc1 | 39% | – |
